Experimental data taken from ChEMBL document CHEMBL1154822, “Synthesis and antiproliferative activity of 7-azaindirubin-3'-oxime, a 7-aza isostere of the natural indirubin pharmacophore” (J Nat Prod, 2009).

What was measured:
Assay type in all cases: functional
NCI-H322M = experiment: Cytotoxicity against human NCI-H322M cells after 1 to 11 days by MTT assay
NCI-H460 [1] = experiment: Cytotoxicity against human NCI-H460 cells after 1 to 11 days by MTT assay
COLO 205 = experiment: Cytotoxicity against human COLO205 cells assessed as cell growth at 0.1 uM after 1 to 11 days by MTT assay; details: read-out: Activity
HCC 2998 [2] = experiment: Cytotoxicity against human HCC2998 cells assessed as cell growth at 1 mM after 1 to 11 days by MTT assay; details: read-out: Activity
CCRF-CEM [3] = experiment: Cytotoxicity against human CCRF-CEM cells assessed as cell growth at 1 uM after 1 to 11 days by MTT assay; details: read-out: Activity
SK-MEL-28 = experiment: Cytotoxicity against human SK-MEL-28 cells assessed as cell growth at 1 uM after 1 to 11 days by MTT assay; details: read-out: Activity
NCI-H460 [4] = experiment: Cytotoxicity against human NCI-H460 cells assessed as cell growth at 1 mM after 1 to 11 days by MTT assay; details: read-out: Activity
CCRF-CEM [5] = experiment: Cytotoxicity against human CCRF-CEM cells assessed as cell growth at 10 uM after 1 to 11 days by MTT assay; details: read-out: Activity
RXF 393 = experiment: Cytotoxicity against human […] cells assessed as cell growth at 0.1 uM after 1 to 11 days by MTT assay; details: read-out: Activity
MCF7 [6] = experiment: Cytotoxicity against human MCF7 cells assessed as cell growth at 1 mM after 1 to 11 days by MTT assay; details: read-out: Activity
CCRF-CEM [7] = experiment: Cytotoxicity against human CCRF-CEM cells after 1 to 11 days by MTT assay
ACHN = experiment: Cytotoxicity against human ACHN cells assessed as cell growth at 100 uM after 1 to 11 days by MTT assay; details: read-out: Activity
NCI/ADR-RES = experiment: Cytotoxicity against human NCI/ADR-RES cells assessed as cell growth at 10 uM after 1 to 11 days by MTT assay; details: read-out: Activity
SNB-19 = experiment: Cytotoxicity against human SNB19 cells assessed as cell growth at 100 uM after 1 to 11 days by MTT assay; details: read-out: Activity
NCI-H23 = experiment: Cytotoxicity against human NCI-H23 cells assessed as cell growth at 0.1 uM after 1 to 11 days by MTT assay; details: read-out: Activity
UACC-257 [8] = experiment: Cytotoxicity against human UACC257 cells assessed as cell growth at 1 uM after 1 to 11 days by MTT assay; details: read-out: Activity
UO-31 = experiment: Cytotoxicity against human UO31 cells after 1 to 11 days by MTT assay
MOLT-4 = experiment: Cytotoxicity against human MOLT4 cells after 1 to 11 days by MTT assay
HOP-62 [9] = experiment: Cytotoxicity against human HOP62 cells assessed as cell growth at 1 mM after 1 to 11 days by MTT assay; details: read-out: Activity
OVCAR-5 [10] = experiment: Cytotoxicity against human OVCAR5 cells assessed as cell growth at 100 uM after 1 to 11 days by MTT assay; details: read-out: Activity
HCC 2998 [11] = experiment: Cytotoxicity against human HCC2998 cells assessed as cell growth at 1 uM after 1 to 11 days by MTT assay; details: read-out: Activity
BT-549 = experiment: Cytotoxicity against human BT549 cells assessed as cell growth at 0.1 uM after 1 to 11 days by MTT assay; details: read-out: Activity
[12] = Cytotoxicity against human Hs 578T cells after 1 to 11 days by MTT assay
DU-145 = experiment: Cytotoxicity against human DU145 cells assessed as cell growth at 100 uM after 1 to 11 days by MTT assay; details: read-out: Activity
OVCAR-5 [13] = experiment: Cytotoxicity against human OVCAR5 cells assessed as cell growth at 0.1 uM after 1 to 11 days by MTT assay; details: read-out: Activity
HT-29 = experiment: Cytotoxicity against human HT-29 cells assessed as cell growth at 0.1 uM after 1 to 11 days by MTT assay; details: read-out: Activity
T47D [14] = experiment: Cytotoxicity against human T47D cells after 1 to 11 days by MTT assay
IGROV-1 = experiment: Cytotoxicity against human IGROV1 cells assessed as cell growth at 10 uM after 1 to 11 days by MTT assay; details: read-out: Activity
T47D [15] = experiment: Cytotoxicity against human T47D cells assessed as cell growth at 0.1 uM after 1 to 11 days by MTT assay; details: read-out: Activity
M14 [16] = experiment: Cytotoxicity against human M14 cells assessed as cell growth at 1 uM after 1 to 11 days by MTT assay; details: read-out: Activity
OVCAR-8 = experiment: Cytotoxicity against human OVCAR8 cells assessed as cell growth at 0.1 uM after 1 to 11 days by MTT assay; details: read-out: Activity
M14 [17] = experiment: Cytotoxicity against human M14 cells after 1 to 11 days by MTT assay
OVCAR-4 = experiment: Cytotoxicity against human OVCAR4 cells assessed as cell growth at 10 uM after 1 to 11 days by MTT assay; details: read-out: Activity
SR = experiment: Cytotoxicity against human SR cells after 1 to 11 days by MTT assay
K562 = experiment: Cytotoxicity against human K562 cells assessed as cell growth at 10 uM after 1 to 11 days by MTT assay; details: read-out: Activity
MDA-MB-231 = experiment: Cytotoxicity against human MDA-MB-231 cells after 1 to 11 days by MTT assay
Malme-3M = experiment: Cytotoxicity against human MALME-3M cells assessed as cell growth at 100 uM after 1 to 11 days by MTT assay; details: read-out: Activity
UACC-257 [18] = experiment: Cytotoxicity against human UACC257 cells assessed as cell growth at 10 uM after 1 to 11 days by MTT assay; details: read-out: Activity
HOP-92 = experiment: Cytotoxicity against human HOP92 cells assessed as cell growth at 1 uM after 1 to 11 days by MTT assay; details: read-out: Activity
SW-620 = experiment: Cytotoxicity against human SW620 cells assessed as cell growth at 10 uM after 1 to 11 days by MTT assay; details: read-out: Activity
MCF7 [19] = experiment: Cytotoxicity against human MCF7 cells assessed as cell growth at 1 uM after 1 to 11 days by MTT assay; details: read-out: Activity
HOP-62 [20] = experiment: Cytotoxicity against human HOP62 cells after 1 to 11 days by MTT assay
[21] = read-out: LC50 (the source's name)

Compound `O=C1Nc2ncccc2/C1=C1/Nc2ccccc2/C1=N\O` has a GI50 (NCI-H322M) of 1.35 µM, a TGI (NCI-H322M) of over 100 µM and a CC50 (NCI-H322M; [21]) of over 100 µM. It also gave a GI50 (NCI-H460 [1]) of 7.02 µM, a TGI (NCI-H460 [1]) of over 100 µM and a CC50 (NCI-H460 [1]; [21]) of over 100 µM. The growth at 0.1 µM (COLO 205) was 96%, the growth at 1000 µM (HCC 2998 [2]) was 36% and the growth at 1 µM (CCRF-CEM [3]) was 76%. For the same compound, the growth at 1 µM (SK-MEL-28) was 87%, the growth at 1000 µM (NCI-H460 [4]) was 32% and the growth at 10 µM (CCRF-CEM [5]) was 82%. For the same compound, the growth at 0.1 µM (RXF 393) was 93%, the growth at 1000 µM (MCF7 [6]) was 41% and the GI50 (CCRF-CEM [7]) was 5.07 µM. It also gave a TGI (CCRF-CEM [7]) of over 100 µM, a CC50 (CCRF-CEM [7]; [21]) of over 100 µM and a growth at 100 µM (ACHN) of 21%. It also gave a growth at 10 µM (NCI/ADR-RES) of 99%, a growth at 100 µM (SNB-19) of 78% and a growth at 0.1 µM (NCI-H23) of 96%. It also gave a growth at 1 µM (UACC-257 [8]) of 92%, a GI50 (UO-31) of 1.58 µM and a TGI (UO-31) of over 100 µM. It also gave a CC50 (UO-31; [21]) of over 100 µM, a GI50 (MOLT-4) of 2.99 µM and a TGI (MOLT-4) of over 100 µM. For the same compound, the CC50 (MOLT-4; [21]) was over 100 µM, the growth at 1000 µM (HOP-62 [9]) was 74% and the growth at 100 µM (OVCAR-5 [10]) was 88%. The growth at 1 µM (HCC 2998 [11]) was 87%, the growth at 0.1 µM (BT-549) was 89% and the GI50 [12] was 2.39 µM. It also gave a TGI [12] of over 100 µM, a CC50 [12, 21] of over 100 µM and a growth at 100 µM (DU-145) of 39%. The growth at 0.1 µM (OVCAR-5 [13]) was 89%, the growth at 0.1 µM (HT-29) was 99% and the GI50 (T47D [14]) was 2.03 µM. The TGI (T47D [14]) was over 100 µM, the CC50 (T47D [14]; [21]) was over 100 µM and the growth at 10 µM (IGROV-1) was 60%. It also gave a growth at 0.1 µM (T47D [15]) of 100%, a growth at 1 µM (M14 [16]) of 95% and a growth at 0.1 µM (OVCAR-8) of 79%. It also gave a GI50 (M14 [17]) of 7.95 µM, a TGI (M14 [17]) of over 100 µM and a CC50 (M14 [17]; [21]) of over 100 µM. For the same compound, the growth at 10 µM (OVCAR-4) was 96%, the GI50 (SR) was 6.65 µM and the TGI (SR) was over 100 µM. For the same compound, the CC50 (SR; [21]) was over 100 µM, the growth at 10 µM (K562) was 66% and the GI50 (MDA-MB-231) was 5.28 µM. The TGI (MDA-MB-231) was over 100 µM, the CC50 (MDA-MB-231; [21]) was over 100 µM and the growth at 100 µM (Malme-3M) was 13%. It also gave a growth at 10 µM (UACC-257 [18]) of 114%, a growth at 1 µM (HOP-92) of 81% and a growth at 10 µM (SW-620) of 98%. The growth at 1 µM (MCF7 [19]) was 91%, the GI50 (HOP-62 [20]) was over 100 µM and the TGI (HOP-62 [20]) was over 100 µM. It also gave a CC50 (HOP-62 [20]; [21]) of over 100 µM.
